Tests used:
Experiment in all cases: RT-PCR analysis of lung, OVA-induced asthma
Type in all cases: in vivo, BALB/c mice
Details in all cases: palmitic acid 5, 25, 50 mg/kg oral, FIG. 27
[1] = tested on: IL-13
Experimental: (§1) In test groups, the animals determined to be healthy during the acclimation period were ranked by measuring the weight, and were randomly grouped so that the average weight of each group was uniform. The animals were divided into a total of 9 groups: a control group; a control group with OVA-induced asthma; a positive control group; groups administered with each of 50 mg/kg, 125 mg/kg and 250 mg/kg of oleic acid; and groups administered with each of 5 mg/kg, 25 mg/kg and 50 mg/kg of palmitic acid. The animals were sensitized via intraperitoneal injection of OVA once a week for 2 weeks after the acclimation period. During 5 days of week 3, dexamethasone (DEX) and the test substances oleic acid and palmitic acid were orally administered in the morning and 5% OVA solution was inhaled in the afternoon. The test substance was orally administered in an amount of 28 μL per weight (g) of the experimental animal, and OVA for sensitization was administered in a constant amount regardless of the weight. After 5 days of administration, autopsy was performed the next day.
(§2) In order to evaluate changes in the cDNA levels of IFN-γ, IL-12p40, IL-4, IL-5, IL-13, TNF-α, and IL-6, which are related to asthma induction, RT-PCR analysis was performed as in a previous study protocol (Lee et al., 2017). Total RNA was extracted from the lung using the RNeasy Mini Kit (Qiagen, Hilden, Germany) according to the manufacturer's instructions. Total RNA (100 ng) was used as a template for the reaction.
(§3) The RT-PCR cycles consisted of denaturation at 95° C. for 5 sec and annealing/extension at 65° C. for 30 sec for 40 cycles. The results were obtained using an Axioscope A1 (Carl Zeiss, Gottingen, Germany).

[2] = tested on: IL-6
Experimental: as §1, §2, §3

[3] = tested on: TNF-α
Experimental: as §1, §2, §3

CCCCCCCCCCCCCCCC(=O)O [palmitic acid]
dose-dependently decreased: Th2-related cytokine IL-13 (cDNA level, RT-PCR) [1] | Th17-related cytokine IL-6 (cDNA level, RT-PCR) [2] | Th17-related cytokine TNF-α (cDNA level, RT-PCR) [3]
